What was measured:
His-hSHIP1 enzyme = target: T1, His-hSHIP1 enzyme (Homo sapiens, UniProt Q92835); test: His-hSHIP1 phosphatase activity assay (IP4 substrate, Biomol Green); format: biochemical; settings: percentage increase relative to background; concentrations ≦300 μM
T1 sequence (Q92835 1-1189): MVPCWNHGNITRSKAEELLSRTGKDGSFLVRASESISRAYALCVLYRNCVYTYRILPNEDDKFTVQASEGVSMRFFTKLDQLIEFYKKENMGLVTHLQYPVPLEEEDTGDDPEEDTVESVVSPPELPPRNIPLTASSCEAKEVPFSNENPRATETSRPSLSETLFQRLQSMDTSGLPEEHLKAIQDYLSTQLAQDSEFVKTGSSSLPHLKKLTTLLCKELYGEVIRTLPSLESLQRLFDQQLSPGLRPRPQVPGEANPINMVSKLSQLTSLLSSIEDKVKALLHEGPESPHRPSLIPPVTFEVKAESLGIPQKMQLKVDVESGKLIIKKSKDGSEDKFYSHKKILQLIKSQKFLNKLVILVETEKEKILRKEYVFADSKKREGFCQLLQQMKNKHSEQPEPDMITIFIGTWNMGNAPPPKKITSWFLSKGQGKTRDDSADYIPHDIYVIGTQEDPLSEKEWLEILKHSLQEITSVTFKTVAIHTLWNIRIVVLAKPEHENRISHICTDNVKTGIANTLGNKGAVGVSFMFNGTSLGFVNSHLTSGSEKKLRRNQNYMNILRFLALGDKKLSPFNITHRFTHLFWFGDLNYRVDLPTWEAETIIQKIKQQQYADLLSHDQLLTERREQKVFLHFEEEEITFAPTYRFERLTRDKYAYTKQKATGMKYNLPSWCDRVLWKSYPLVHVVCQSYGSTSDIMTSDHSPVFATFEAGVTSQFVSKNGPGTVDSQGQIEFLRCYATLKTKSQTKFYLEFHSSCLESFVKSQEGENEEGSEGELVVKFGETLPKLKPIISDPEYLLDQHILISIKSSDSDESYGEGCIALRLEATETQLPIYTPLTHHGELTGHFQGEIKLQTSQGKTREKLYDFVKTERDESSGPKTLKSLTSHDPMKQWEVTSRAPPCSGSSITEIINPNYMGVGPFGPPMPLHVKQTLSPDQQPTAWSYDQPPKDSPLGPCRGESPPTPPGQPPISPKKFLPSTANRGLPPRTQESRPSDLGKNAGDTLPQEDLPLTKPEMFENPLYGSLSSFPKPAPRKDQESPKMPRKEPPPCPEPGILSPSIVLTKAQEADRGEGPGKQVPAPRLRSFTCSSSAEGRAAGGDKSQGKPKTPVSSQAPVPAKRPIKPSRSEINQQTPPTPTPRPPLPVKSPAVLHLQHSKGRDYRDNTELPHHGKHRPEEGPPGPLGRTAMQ
Outline: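 His-hSHIP1 (15–20 ng) was incubated with IP4 (50 μM final) and compound (0–300 μM final, from 10% ethanol solutions) in 20 mM Tris-HCl, 10 mM MgCl2 pH 7.5, 0.02% Tween 20 for 15 min at 37 °C. Released phosphate was read with Biomol Green at 650 nm. Activation is % increase over background, scored + (<50%), ++ (≥50% but <65%), +++ (≥65%).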

[1] = tested on: carrageenan-induced paw edema; test: Carrageenan paw edema in mice; format: in vivo; settings: oral, doses less than 30 mg/kg, 4 hours after carrageenan
Procedure: The activity of representative compounds on carrageenan paw edema in mice was evaluated according to the procedures disclosed by Winter et al., Proc Soc Exp Biol Med 111, 544-547, 1962, which is incorporated herein by reference in its entirety. To induce edema in the paw, test compounds were administered orally one hour before intraplantar injection of the right hind paw with carrageenan (50 μL of 1% suspension). Hind paw edema, as a measure of inflammation, was recorded using a plethysmometer (Ugo Basile, Italy) 4 hours after λ-carrageenan administration.

Scoring: percent (%) activation of His-hSHIP1 enzyme (His-hSHIP1 enzyme)	SMILES	inhibition of carrageenan-induced paw edema [1] [%]
+ (<50%)	Cc1cc(O)cc2c1[C@]1(C)CC[C@H]3C(C)(C)CCC[C@]3(C)[C@H]1CO2 [Compound No. 6, (1R,10R,11S,16S)-1,3,11,15,15-pentamethyl-8-oxatetracyclo[8.8.0.0^2,7.0^11,16]octadeca-2,4,6-trien-5-ol]	24
+++ (≧65%)	CC1(C)CCC[C@]2(C)[C@H]3CS(=O)(=O)c4cc(O)cc(O)c4[C@]3(C)CC[C@@H]12 [Compound No. 28, (1R,10R,11S,16S)-3,5-dihydroxy-1,11,15,15-tetramethyl-8-thiatetracyclo[8.8.0.0^2,7.0^11,16]octadeca-2,4,6-triene-8,8-dione]	
